Literature values, collected in US20120129799A1, “STABLE COMPOSITION OF READY-TO-USE GEMCITABINE INJECTION” (ASTRON RESEARCH LIMITED, priority 2009, published 2012).
“Also recorded” adds a separate entry of the source.

Assays:
[1] = higher pH (5.0 to 9.0)

degradation products obtained (aqueous solution, pH 3.2 (sodium acetate), thermally stressed conditions): four significant degradation products | chemical stability of aqueous solution (aqueous solution, pH of approximately 3.0): not chemically stable | stability in aqueous solution (higher pH (5.0 to 9.0)): remains stable | stability (lower pH): poor stability
SMILES: Nc1ccn([C@@H]2O[C@H](CO)[C@@H](O)C2(F)F)c(=O)n1 [Gemcitabine, 1-(2-oxo-4-amino-1,2-dihydropyrimidin-1-yl)-2-deoxy-2,2-difluororibose]
aqueous solubility [1]: low aqueous solubility; also recorded: very low solubility
